According to patent US8012504B2 (priority 2000, dated 2011):
Structures can show the parent of a compound that is named as a salt.

What was measured:
[1] = clinical; type: in vivo, human
Text: In another study drug interaction potential for combination drugs was examined.

[2] = clinical; conditions: human, in vivo, 1200 mg
[3] = in vivo; cited from earlier work

With `COc1ccccc1OCC(O)CO` (centres unmarked) [Guaifenesin, 3-(2-methoxyphenoxy)-1,2-propanediol] the AUC(0-t) ([1]; human, in vivo, 1200 mg, Guaifenesin AUC0-t) was 7060 ng·h/mL, the AUC(0-inf) ([1]; human, in vivo, 1200 mg, Guaifenesin AUCinf) was 7280 ng·h/mL and the clearance ([1]; human, in vivo, 1200 mg, Guaifenesin Clearance) was 2750 mL/min. The Cmax ([1]; human, in vivo, 1200 mg, Guaifenesin Cmax) was 1700 ng/mL, the half-life ([1]; human, in vivo, 1200 mg, Guaifenesin Half-life) was 2.82 h and the Tmax ([1]; human, in vivo, 1200 mg, Guaifenesin Tmax) was 0.75 h. The AUC(0-t) ([2]; Guaifenesin AUC0-t) was 8350 ng·h/mL, the AUC(0-inf) ([2]; Guaifenesin AUCinf) was 8830 ng·h/mL and the clearance ([2]; Guaifenesin Clearance) was 2270 mL/min. It also gave a Cmax ([2]; Guaifenesin Cmax) of 1920 ng/mL, a half-life ([2]; Guaifenesin Half life) of 3.03 h and a Tmax ([2]; Guaifenesin Tmax) of 0.75 h. The typical plasma half-life [3] was “approximately one”.

With `CN[C@@H](C)[C@@H](O)c1ccccc1` [Pseudoephedrine, Pseudoephedrine hydrochloride] the AUC(0-t) ([1]; human, in vivo, po, 120 mg, Pseudoephedrine AUC0-t, mean, Treatment B: 120 mg pseudoephedrine HCl alone (Sudafed 12 Hour), overnight fast) was 4020 ng·h/mL, the AUC(0-t) ([1]; human, in vivo, po, 120 mg, Pseudoephedrine AUC0-t, mean, Treatment C: 120 mg pseudoephedrine HCl along with 1200 mg guaifenesin (Sudafed 12 Hour + Mucinex), overnight fast) was 3920 ng·h/mL and the AUC(0-t) ([1]; human, in vivo, po, 120 mg, Pseudoephedrine AUC0-t, median, Treatment B: 120 mg pseudoephedrine HCl alone (Sudafed 12 Hour), overnight fast) was 3820 ng·h/mL. It also gave an AUC(0-t) ([1]; human, in vivo, po, 120 mg, Pseudoephedrine AUC0-t, median, Treatment C: 120 mg pseudoephedrine HCl along with 1200 mg guaifenesin (Sudafed 12 Hour + Mucinex), overnight fast) of 3930 ng·h/mL, an AUC(0-inf) ([1]; human, in vivo, po, 120 mg, Pseudoephedrine AUCinf, mean, Treatment B: 120 mg pseudoephedrine HCl alone (Sudafed 12 Hour), overnight fast) of 4500 ng·h/mL and an AUC(0-inf) ([1]; human, in vivo, po, 120 mg, Pseudoephedrine AUCinf, mean, Treatment C: 120 mg pseudoephedrine HCl along with 1200 mg guaifenesin (Sudafed 12 Hour + Mucinex), overnight fast) of 4400 ng·h/mL. It also gave an AUC(0-inf) ([1]; human, in vivo, po, 120 mg, Pseudoephedrine AUCinf, median, Treatment B: 120 mg pseudoephedrine HCl alone (Sudafed 12 Hour), overnight fast) of 4430 ng·h/mL, an AUC(0-inf) ([1]; human, in vivo, po, 120 mg, Pseudoephedrine AUCinf, median, Treatment C: 120 mg pseudoephedrine HCl along with 1200 mg guaifenesin (Sudafed 12 Hour + Mucinex), overnight fast) of 4250 ng·h/mL and a Cmax ([1]; human, in vivo, po, 120 mg, Pseudoephedrine Cmax, mean, Treatment B: 120 mg pseudoephedrine HCl alone (Sudafed 12 Hour), overnight fast) of 296 ng/mL. For the same molecule, the Cmax ([1]; human, in vivo, po, 120 mg, Pseudoephedrine Cmax, mean, Treatment C: 120 mg pseudoephedrine HCl along with 1200 mg guaifenesin (Sudafed 12 Hour + Mucinex), overnight fast) was 289 ng/mL, the Cmax ([1]; human, in vivo, po, 120 mg, Pseudoephedrine Cmax, median, Treatment B: 120 mg pseudoephedrine HCl alone (Sudafed 12 Hour), overnight fast) was 298 ng/mL and the Cmax ([1]; human, in vivo, po, 120 mg, Pseudoephedrine Cmax, median, Treatment C: 120 mg pseudoephedrine HCl along with 1200 mg guaifenesin (Sudafed 12 Hour + Mucinex), overnight fast) was 286 ng/mL. The half-life ([1]; human, in vivo, po, 120 mg, Pseudoephedrine Half-life, mean, Treatment B: 120 mg pseudoephedrine HCl alone (Sudafed 12 Hour), overnight fast) was 6.05 h, the half-life ([1]; human, in vivo, po, 120 mg, Pseudoephedrine Half-life, mean, Treatment C: 120 mg pseudoephedrine HCl along with 1200 mg guaifenesin (Sudafed 12 Hour + Mucinex), overnight fast) was 6.04 h and the half-life ([1]; human, in vivo, po, 120 mg, Pseudoephedrine Half-life, median, Treatment B: 120 mg pseudoephedrine HCl alone (Sudafed 12 Hour), overnight fast) was 5.81 h. For the same molecule, the half-life ([1]; human, in vivo, po, 120 mg, Pseudoephedrine Half-life, median, Treatment C: 120 mg pseudoephedrine HCl along with 1200 mg guaifenesin (Sudafed 12 Hour + Mucinex), overnight fast) was 5.63 h, the Tmax ([1]; human, in vivo, po, 120 mg, Pseudoephedrine Tmax, mean, Treatment B: 120 mg pseudoephedrine HCl alone (Sudafed 12 Hour), overnight fast) was 6.17 h and the Tmax ([1]; human, in vivo, po, 120 mg, Pseudoephedrine Tmax, mean, Treatment C: 120 mg pseudoephedrine HCl along with 1200 mg guaifenesin (Sudafed 12 Hour + Mucinex), overnight fast) was 5.75 h. The Tmax ([1]; human, in vivo, po, 120 mg, Pseudoephedrine Tmax, median, Treatment B: 120 mg pseudoephedrine HCl alone (Sudafed 12 Hour), overnight fast) was 6 h, the Tmax ([1]; human, in vivo, po, 120 mg, Pseudoephedrine Tmax, median, Treatment C: 120 mg pseudoephedrine HCl along with 1200 mg guaifenesin (Sudafed 12 Hour + Mucinex), overnight fast) was 6 h and the “Pseudoephedrine Clearance” value ([1]; mean, Treatment B: 120 mg pseudoephedrine HCl alone (Sudafed 12 Hour), overnight fast) was 23.66 L/h. For the same molecule, the “Pseudoephedrine Clearance” value ([1]; mean, Treatment C: 120 mg pseudoephedrine HCl along with 1200 mg guaifenesin (Sudafed 12 Hour + Mucinex), overnight fast) was 24.30 L/h, the “Pseudoephedrine Clearance” value ([1]; median, Treatment B: 120 mg pseudoephedrine HCl alone (Sudafed 12 Hour), overnight fast) was 22.20 L/h and the “Pseudoephedrine Clearance” value ([1]; median, Treatment C: 120 mg pseudoephedrine HCl along with 1200 mg guaifenesin (Sudafed 12 Hour + Mucinex), overnight fast) was 23.16 L/h. For the same molecule, the mean elimination half-life [3] was 4 to 6 h.
